Assay results reported in the NIST ThermoML archive (doi:10.1021/je900749a).

Assay: cn = amount concentration of the nth substance listed, in mol/dm3
Settings: 300 K, Ring tensiometer

CN(C)CCCN1c2ccccc2Sc2ccc(Cl)cc21.Cl + O
Settings	surface tension liquid-gas [mN/m]
c1 = 0.001381	65.7
c1 = 0.002344	60.5
c1 = 0.003289	57.15
c1 = 0.004762	53.4
c1 = 0.006542	50.5
c1 = 0.009091	47.15
c1 = 0.01228	45.2
c1 = 0.01525	44.15
c1 = 0.01666	44
c1 = 0.01803	44.05
c1 = 0.01936	44

CC(CN1c2ccccc2Sc2ccccc21)N(C)C.Cl (stereo not given) [promethazine hydrochloride] + O
Settings	surface tension liquid-gas [mN/m]
c1 = 0.002941	71.3
c1 = 0.005769	64.15
c1 = 0.01111	56.45
c1 = 0.01842	50.35
c1 = 0.02903	46.45
c1 = 0.03637	43.4
c1 = 0.04287	42.55
c1 = 0.04865	42.2
c1 = 0.05385	42.1
c1 = 0.05853	42.15

CN(C)CCCN1c2ccccc2CCc2ccccc21.Cl + O
Settings	surface tension liquid-gas [mN/m]
c1 = 0.003658	68.55
c1 = 0.007143	62.15
c1 = 0.01364	54.6
c1 = 0.01957	51.7
c1 = 0.03	47.05
c1 = 0.03889	43.75
c1 = 0.04287	43
c1 = 0.04655	42.3
c1 = 0.05	42.3
c1 = 0.05769	42.3

CN(C)CCC=C1c2ccccc2CCc2ccccc21.Cl + O
Settings	surface tension liquid-gas [mN/m]
c1 = 0.001584	69.15
c1 = 0.003138	62.75
c1 = 0.009057	55.25
c1 = 0.01455	50.75
c1 = 0.02441	46.1
c1 = 0.02885	44.55
c1 = 0.03301	43.15
c1 = 0.0406	42.55
c1 = 0.04572	42.5
